Laboratory results published in ChEMBL document CHEMBL2417441, “Synthesis, structure, and cytotoxicity studies of some fungal isochromanes” (J Nat Prod, 2013).
Activity calls are given as the source filed them. No cut-off for these calls is given here.

Key:
HCT-116 [1] = test: Cytotoxicity against human HCT116 cells after 72 hrs by WST-8 assay; assay type: functional, cell-based; details: HCT-116, 72 h
HCT-116 [2] = test: Induction of apoptosis in human HCT116 cells assessed as DNA fragmentation at 5 uM after 72 hrs by TUNEL assay; assay type: functional, cell-based
HCT-116 [3] = test: Induction of apoptosis in human HCT116 cells at 5 uM after 72 hrs by fluorescence microscopic analysis relative to etoposide; assay type: functional

## CC[C@@]1(O)C(=O)OCc2c1cc1n(c2=O)Cc2cc3ccccc3nc2-1 [CAMPTOTHECIN]
HCT-116 [1]
  IC50: 0.016 µM

## CO[C@H]1O[C@H](C)Cc2ccc3c(c21)O[C@H](C(C)C)C3=O
HCT-116 [1]
  IC50: > 100 µM

## CO[C@H]1O[C@H](C)Cc2ccc3c(c21)OC(=C(C)C)C3=O [USTUSORANE C]
HCT-116 [1]
  IC50: 5.9 µM

## C[C@@H](O)Cc1cccc(O)c1CO
HCT-116 [1]
  IC50: > 100 µM

## CC(C)=C1Oc2c(ccc3c2C(=O)O[C@H](C)C3)C1=O
HCT-116 [1]
  IC50: 9.8 µM

## CO[C@H]1O[C@H](C)Cc2ccc3c(c21)O[C@@H](C(C)C)C3=O (relative stereo)
HCT-116 [1]
  IC50: > 100 µM

## CC(C)=C1Oc2c(ccc3c2[C@@H](O)O[C@H](C)C3)C1=O [(+)-PSEUDODEFLECTUSIN]
HCT-116 [2]
  Activity: Active
HCT-116 [3]
  fold change (FC): 2
HCT-116 [1]
  IC50: 5 µM

## CC(C)[C@H]1Oc2c(ccc3c2[C@@H](O)O[C@H](C)C3)C1=O
HCT-116 [1]
  IC50: > 100 µM

## CC(C)[C@@H]1Oc2c(ccc3c2[C@@H](O)O[C@H](C)C3)C1=O
HCT-116 [1]
  IC50: > 100 µM
